Results as given in ChEMBL document CHEMBL4837183, “Antiproliferative Bufadienolides from the Bulbs of Drimia altissima” (2021).

Tests used:
Type in all cases: functional
UACC-62 = experiment: Growth inhibition of human UACC-62 cells measured after 48 hrs by SRB assay
PC-3 = experiment: Growth inhibition of human PC-3 cells measured after 48 hrs by SRB assay
A549 = experiment: Growth inhibition of human A549 cells measured after 48 hrs by SRB assay
SK-MEL-2 = experiment: Growth inhibition of human SK-MEL-2 cells measured after 48 hrs by SRB assay
SR = experiment: Growth inhibition of human SR cells measured after 48 hrs by SRB assay
SF-539 = experiment: Growth inhibition of human SF-539 cells measured after 48 hrs by SRB assay
NCI/ADR-RES = experiment: Growth inhibition of human NCI/ADR-RES cells measured after 48 hrs by SRB assay
SF-268 = experiment: Growth inhibition of human SF-268 cells measured after 48 hrs by SRB assay
MDA-MB-435 = experiment: Growth inhibition of human MDA-MB-435 cells measured after 48 hrs by SRB assay
RXF 393 = experiment: Growth inhibition of human RXF 393 cells measured after 48 hrs by SRB assay
NCI-H522 = experiment: Growth inhibition of human NCI-H522 cells measured after 48 hrs by SRB assay
BT-549 = experiment: Growth inhibition of human BT-549 cells measured after 48 hrs by SRB assay
NCI-H322M = experiment: Growth inhibition of human NCI-H322M cells measured after 48 hrs by SRB assay
SK-MEL-28 = experiment: Growth inhibition of human SK-MEL-28 cells measured after 48 hrs by SRB assay
SF-295 = experiment: Growth inhibition of human SF-295 cells measured after 48 hrs by SRB assay
K562 = experiment: Growth inhibition of human K562 cells measured after 48 hrs by SRB assay
UACC-257 = experiment: Growth inhibition of human UACC-257 cells measured after 48 hrs by SRB assay
OVCAR-3 = experiment: Growth inhibition of human OVCAR-3 cells measured after 48 hrs by SRB assay
IGROV-1 = experiment: Growth inhibition of human IGROV-1 cells measured after 48 hrs by SRB assay
HCT-116 = experiment: Growth inhibition of human HCT-116 cells measured after 48 hrs by SRB assay
KM12 = experiment: Growth inhibition of human KM12 cells measured after 48 hrs by SRB assay
MOLT-4 = experiment: Growth inhibition of human MOLT-4 cells measured after 48 hrs by SRB assay
NCI-H460 = experiment: Growth inhibition of human NCI-H460 cells measured after 48 hrs by SRB assay
Malme-3M = experiment: Growth inhibition of human Malme-3M cells measured after 48 hrs by SRB assay
ACHN = experiment: Growth inhibition of human ACHN cells measured after 48 hrs by SRB assay
HOP-92 = experiment: Growth inhibition of human HOP-92 cells measured after 48 hrs by SRB assay
HOP-62 = experiment: Growth inhibition of human HOP-62 cells measured after 48 hrs by SRB assay
Hs-578T = experiment: Growth inhibition of human Hs-578T cells measured after 48 hrs by SRB assay
NCI-H23 = experiment: Growth inhibition of human NCI-H23 cells measured after 48 hrs by SRB assay
HL-60 = experiment: Growth inhibition of human HL-60 cells measured after 48 hrs by SRB assay
SNB-75 = experiment: Growth inhibition of human SNB-75 cells measured after 48 hrs by SRB assay
M14 = experiment: Growth inhibition of human M14 cells measured after 48 hrs by SRB assay
SK-OV-3 = experiment: Growth inhibition of human SK-OV-3 cells measured after 48 hrs by SRB assay
MDA-MB-231 = experiment: Growth inhibition of human MDA-MB-231 cells measured after 48 hrs by SRB assay
TK-10 = experiment: Growth inhibition of human TK-10 cells measured after 48 hrs by SRB assay
786-0 = experiment: Growth inhibition of human 786-0 cells measured after 48 hrs by SRB assay
COLO 205 = experiment: Growth inhibition of human COLO 205 cells measured after 48 hrs by SRB assay
SN12C = experiment: Growth inhibition of human SN12C cells measured after 48 hrs by SRB assay
MCF7 = experiment: Growth inhibition of human MCF7 cells measured after 48 hrs by SRB assay
HCC 2998 = experiment: Growth inhibition of human HCC 2998 cells measured after 48 hrs by SRB assay
NCI-H226 = experiment: Growth inhibition of human NCI-H226 cells measured after 48 hrs by SRB assay
MDA-MB-468 = experiment: Growth inhibition of human MDA-MB-468 cells measured after 48 hrs by SRB assay
SW-620 = experiment: Growth inhibition of human SW-620 cells measured after 48 hrs by SRB assay
T47D = experiment: Growth inhibition of human T47D cells measured after 48 hrs by SRB assay
HT-29 = experiment: Growth inhibition of human HT-29 cells measured after 48 hrs by SRB assay
CCRF-CEM = experiment: Growth inhibition of human CCRF-CEM cells measured after 48 hrs by SRB assay
OVCAR-8 = experiment: Growth inhibition of human OVCAR-8 cells measured after 48 hrs by SRB assay
CAKI-1 = experiment: Growth inhibition of human CAKI-1 cells measured after 48 hrs by SRB assay
OVCAR-5 = experiment: Growth inhibition of human OVCAR-5 cells measured after 48 hrs by SRB assay
HCT-15 = experiment: Growth inhibition of human HCT-15 cells measured after 48 hrs by SRB assay
LOX IMVI = experiment: Growth inhibition of human LOX IMVI cells measured after 48 hrs by SRB assay
U-251 = experiment: Growth inhibition of human U-251 cells measured after 48 hrs by SRB assay
UO-31 = experiment: Growth inhibition of human UO-31 cells measured after 48 hrs by SRB assay
SK-MEL-5 = experiment: Growth inhibition of human SK-MEL-5 cells measured after 48 hrs by SRB assay
DU-145 = experiment: Growth inhibition of human DU-145 cells measured after 48 hrs by SRB assay
SNB-19 = experiment: Growth inhibition of human SNB-19 cells measured after 48 hrs by SRB assay
A498 = experiment: Growth inhibition of human A498 cells measured after 48 hrs by SRB assay
RPMI-8226 = experiment: Growth inhibition of human RPMI-8226 cells measured after 48 hrs by SRB assay

C[C@]12CC[C@H]3[C@@H](CC[C@H]4C[C@@H](O)CC[C@@]43C=O)[C@@]1(O)CC[C@@H]2c1ccc(=O)oc1
GI50 (UACC-62): 3.2 µM
GI50 (PC-3): 3530 nM
GI50 (A549): 562 nM
GI50 (SK-MEL-2): 4.3 µM
GI50 (SR): 2030 nM
GI50 (SF-539): 1470 nM
GI50 (NCI/ADR-RES): 1490 nM
GI50 (SF-268): 1070 nM
GI50 (MDA-MB-435): 3.5 µM
GI50 (RXF 393): 418 nM
GI50 (NCI-H522): 694 nM
GI50 (BT-549): 1730 nM
GI50 (NCI-H322M): 3120 nM
GI50 (SK-MEL-28): 6.05 µM
GI50 (SF-295): 1980 nM
GI50 (K562): 4280 nM
GI50 (UACC-257): 4.5 µM
GI50 (OVCAR-3): 1710 nM
GI50 (IGROV-1): 5.06 µM
GI50 (HCT-116): 633 nM
GI50 (KM12): 6.25 µM
GI50 (MOLT-4): 665 nM
GI50 (NCI-H460): 556 nM
GI50 (Malme-3M): 3.47 µM
GI50 (ACHN): 502 nM
GI50 (HOP-92): 3220 nM
GI50 (HOP-62): 1100 nM
GI50 (Hs-578T): 739 nM
GI50 (NCI-H23): 1710 nM
GI50 (HL-60): 3410 nM
GI50 (SNB-75): 3180 nM
GI50 (M14): 4.14 µM
GI50 (SK-OV-3): 5.63 µM
GI50 (MDA-MB-231): 14.1 µM
GI50 (TK-10): 2580 nM
GI50 (786-0): 1760 nM
GI50 (COLO 205): 6.52 µM
GI50 (SN12C): 877 nM
GI50 (MCF7): 990 nM
GI50 (HCC 2998): 8.74 µM
GI50 (NCI-H226): 6.87 µM
GI50 (MDA-MB-468): 8.23 µM
GI50 (SW-620): 1340 nM
GI50 (T47D): 4.74 µM
GI50 (HT-29): 2700 nM
GI50 (CCRF-CEM): 1070 nM
GI50 (OVCAR-8): 2830 nM
GI50 (CAKI-1): 1500 nM
GI50 (OVCAR-5): 5.21 µM
GI50 (HCT-15): 2.15 µM
GI50 (LOX IMVI): 2.37 µM
GI50 (U-251): 4.47 µM
GI50 (UO-31): 1600 nM
GI50 (SK-MEL-5): 2350 nM
GI50 (DU-145): 1180 nM
GI50 (SNB-19): 6.41 µM
GI50 (A498): 1130 nM

C[C@]12CC[C@@H](O)C=C1CC[C@@H]1[C@@H]2[C@@H](O)C[C@]2(C)[C@@H](c3ccc(=O)oc3)CC[C@]12O
GI50 (UACC-62): 3.31 µM
GI50 (PC-3): 1880 nM
GI50 (A549): 649 nM
GI50 (SK-MEL-2): 3.06 µM
GI50 (SR): 189 nM
GI50 (SF-539): 1490 nM
GI50 (NCI/ADR-RES): 2230 nM
GI50 (SF-268): 656 nM
GI50 (MDA-MB-435): 3.35 µM
GI50 (RXF 393): 412 nM
GI50 (NCI-H522): 639 nM
GI50 (BT-549): 658 nM
GI50 (NCI-H322M): 2880 nM
GI50 (SK-MEL-28): 3.47 µM
GI50 (SF-295): 1750 nM
GI50 (K562): 644 nM
GI50 (UACC-257): 3.45 µM
GI50 (OVCAR-3): 739 nM
GI50 (IGROV-1): 3.69 µM
GI50 (HCT-116): 532 nM
GI50 (KM12): 5 µM
GI50 (MOLT-4): 303 nM
GI50 (NCI-H460): 573 nM
GI50 (Malme-3M): 4.35 µM
GI50 (ACHN): 475 nM
GI50 (HOP-92): 2100 nM
GI50 (HOP-62): 1550 nM
GI50 (Hs-578T): 831 nM
GI50 (NCI-H23): 2230 nM
GI50 (HL-60): 273 nM
GI50 (SNB-75): 2170 nM
GI50 (M14): 3.38 µM
GI50 (SK-OV-3): 4.24 µM
GI50 (MDA-MB-231): 8.5 µM
GI50 (TK-10): 2980 nM
GI50 (786-0): 998 nM
GI50 (COLO 205): 6.05 µM
GI50 (SN12C): 1070 nM
GI50 (MCF7): 3530 nM
GI50 (RPMI-8226): 2540 nM
GI50 (HCC 2998): 7.85 µM
GI50 (NCI-H226): 7.56 µM
GI50 (MDA-MB-468): 10.2 µM
GI50 (SW-620): 1690 nM
GI50 (T47D): 4.71 µM
GI50 (CCRF-CEM): 502 nM
GI50 (OVCAR-8): 2110 nM
GI50 (CAKI-1): 2470 nM
GI50 (OVCAR-5): 2.84 µM
GI50 (HCT-15): 4.11 µM
GI50 (LOX IMVI): 3.69 µM
GI50 (UO-31): 2150 nM
GI50 (SK-MEL-5): 3030 nM
GI50 (DU-145): 760 nM
GI50 (SNB-19): 4.97 µM
GI50 (A498): 1770 nM
